Assay results published in US9464049B2, “Indole-carboxamides” (Hoffmann-La Roche Inc., priority 2013, dated 2016).

Tests used:
[1] = test system: human embryonic stem cell derived neural stem cells (NSCs); assay: Neural stem cell proliferation assay (neurogenesis assay, ATP levels by CellTiterGlo); assay type: cell-based; conditions: compound concentration at which 150% activity of control (100%) is reached, NSC proliferation by ATP (CellTiterGlo) after 4 days incubation, dose response 8 μM to 8 nM
Description: Neural Stem Cell Proliferation Assay
Neurogenic properties of small molecules are determined based on the proliferation of human embryonic stem cell derived neural stem cells (NSCs) which were derived via a dual smad inhibition as previously described (Chambers, S. M., et al., Highly efficient neural conversion of human ES and iPS cells by dual inhibition of SMAD signaling, Nature biotechnology, 2009. 27(3): p. 275-80.)
Compounds respond is measured by the increase in cells based on ATP levels (Promega:CellTiterGlo®) after an incubation period of 4 days.
NSCs are thawed and expanded over 3 passages. On the 14th day, NSCs are seeded in Polyornithin/Laminin coated 384 well plates at a cell density of 21,000 cells/cm^2 in a media volume of 38 μl.
4 hours after cell seeding, compound solutions are added at a volume of 2 μl. Stock solutions of the compounds (water, 5% DMSO) are diluted to obtain a dose response (11 points, dilution factor is 2), ranging from 8 μM to 8 nM. Controls are run to consistently determine the neurogenic properties of the cells: • Negative (neutral) control is cell culture Media (final DMSO concentration: 0.25%). • Positive controls are: • 1. cell culture Media+100 ng/ml FGF2 (final DMSO concentration: 0.1%) • 2. cell culture Media+20 ng/ml EGF (final DMSO concentration: 0.1%) • 3. cell culture Media+100 ng/ml Wnt3a (final DMSO concentration: 0.1%)
After 4 days incubation at 37° C., 5% CO2, the amount of ATP per well is quantified. The ATP concentration is proportional to the cell number. ATP is quantified by using the Promega CellTiterGlo® kit. The CellTiterGlo® reagents contain a cell lysis buffer, a thermo stable luciferase (UltraGlo™ recombinant luciferase), magnesium and luciferin. Luciferin reacts with ATP producing oxyluciferin, AMP and light. The luminescence signal is proportional to the ATP content.
The value of negative (neutral) control is determined for each assay plate by taking the average of 16 negative control wells. The neurogenic compound response is calculated for each compound as (compound/Negative Control)*100.
The values of EC150 from the dose response curve are determined for each test compound. The EC150 is the compound concentration at which 150% activity of control (100%) is reached.

[2] = Homo sapiens, Neural stem cell, 96 h

Molecule | melting point [°C] | EC (150% of control) [1] [µM] | EC (150% of control) [1, 2] [µM]
5-Cyano-7-3,4-difluorophenyl)-1H-indole-2-carboxamide [Example 33] |  | 0.056 | 
Cc1c(C(N)=O)n(C)c2c(-c3ccc(Cl)cc3)cc(C#N)cc12 [Example 1, 7-(4-Chloro-phenyl)-5-cyano-1,3-dimethylindole-2-carboxamide] | 237 |  | 0.14
Cn1c(C(N)=O)cc2cc(F)cc(-c3ccc(F)cc3)c21 [Example 2, 5-Fluoro-7-(4-fluoro-phenyl)-1-methylindole-2-carboxamide] | 156 |  | 1.4
NC(=O)c1cc2cc(F)cc(-c3ccc(F)cc3)c2[nH]1 [Example 3, 5-Fluoro-7-(4-fluoro-phenyl)-1H-indole-2-carboxamide] | 162 |  | 0.18
Cc1c(C(N)=O)n(C)c2c(-c3ccc(F)cc3)cc(C#N)cc12 [Example 4, 5-Cyano-7-(4-fluorophenyl)-1,3-dimethylindole-2-carboxamide] | 216 |  | 0.21
Cc1c(C(N)=O)n(C)c2c(-c3ccc(F)c(F)c3)cc(C#N)cc12 [Example 5, 5-Cyano-7-(3,4-difluorophenyl)-1,3-dimethylindole-2-carboxamide] | 212 |  | 0.35
Cc1c(C(N)=O)n(C)c2c(-c3ccc(C(F)(F)F)cc3)cc(C#N)cc12 [Example 6, 5-Cyano-1,3-dimethyl-7-[4-(trifluoromethyl)-phenyl]-indole-2-carboxamide] | 195 |  | 2.7
Cc1c(C(N)=O)[nH]c2c(-c3ccc(F)c(F)c3)cc(C#N)cc12 [Example 7, 5-Cyano-7-(3,4-difluorophenyl)-3-methyl-1H-indole-2-carboxamide] | 222 |  | 0.3
Cc1c(C(N)=O)[nH]c2c(-c3ccc(C(F)(F)F)cc3)cc(C#N)cc12 [Example 8, 5-Cyano-3-methyl-7-[4-(trifluoromethyl)phenyl]-1H-indole-2-carboxamide] | 243 |  | 0.4
Cc1c(C(N)=O)[nH]c2c(-c3ccc(F)cc3)cc(C#N)cc12 [Example 9, 5-Cyano-7-(4-fluorophenyl)-3-methyl-1H-indole-2-carboxamide] | 268 |  | 0.22
Cc1c(C(N)=O)[nH]c2c(-c3ccc(Cl)cc3)cc(C#N)cc12 [Example 10, 7-(4-Chlorophenyl)-5-cyano-3-methyl-1H-indole-2-carboxamide] | 291 |  | 0.21
Cc1c(C(N)=O)[nH]c2c(-c3ccc(F)cc3)cc(Cl)cc12 [Example 11, 5-Chloro-7-(4-fluorophenyl)-3-methyl-1H-indole-2-carboxamide] | 173 |  | 0.22
Cc1c(C(N)=O)[nH]c2c(-c3ccc(Cl)cc3)cc(Cl)cc12 [Example 12, 5-Chloro-7-(4-chlorophenyl)-3-methyl-1H-indole-2-carboxamide] | 252 |  | 0.31
Cc1c(C(N)=O)n(C)c2c(-c3ccc(F)cc3)cc(Cl)cc12 [Example 13, 5-Chloro-7-(4-fluorophenyl)-1,3-dimethylindole-2-carboxamide] | 178 |  | 1.64

Now from value to molecule, other results behind:

melting point [°C] | Molecule | EC (150% of control) [1] [µM] | EC (150% of control) [1, 2] [µM]
195 | Cc1c(C(N)=O)n(C)c2c(-c3ccc(Cl)cc3)cc(Cl)cc12 [Example 14, 5-Chloro-7-(4-chlorophenyl)-1,3-dimethylindole-2-carboxamide] |  | 0.84
206 | Cc1c(C(N)=O)[nH]c2c(-c3ccc(F)c(F)c3)cc(Cl)cc12 [Example 15, 5-Chloro-7-(3,4-difluorophenyl)-3-methyl-1H-indole-2-carboxamide] |  | 0.64
184 | Cc1c(C(N)=O)[nH]c2c(-c3ccc(C(F)(F)F)cc3)cc(Cl)cc12 [Example 16, 5-Chloro-3-methyl-7-[4-(trifluoromethyl)-phenyl]-1H-indole-2-carboxamide] |  | 0.75
196 | Cc1c(C(N)=O)n(C)c2c(-c3ccc(F)c(F)c3)cc(Cl)cc12 [Example 17, 5-Chloro-7-(3,4-difluorophenyl)-1,3-dimethylindole-2-carboxamide] |  | 3.3
206 | Cc1c(C(N)=O)n(C)c2c(-c3ccc(C(F)(F)F)cc3)cc(Cl)cc12 [Example 18, 5-Chloro-1,3-dimethyl-7-[4-(trifluoromethyl)phenyl]indole-2-carboxamide] |  | 2.8
207 | Cc1c(C(N)=O)[nH]c2c(-c3ccc(OC(F)(F)F)cc3)cc(C#N)cc12 [Example 19, 5-Cyano-3-methyl-7-[4-(trifluoromethoxy)-phenyl]-1H-indole-2-carboxamide] |  | 1.13
294 | Cc1c(C(N)=O)[nH]c2c(-c3ccc(C#N)cc3)cc(C#N)cc12 [Example 20, 5-Cyano-7-(4-cyanophenyl)-3-methyl-1H-indole-2-carboxamide] |  | 0.24
106 | Cc1c(C(N)=O)n(C)c2c(-c3ccc(OC(F)(F)F)cc3)cc(C#N)cc12 [Example 21, 5-Cyano-1,3-dimethyl-7-[4-(trifluoromethoxy)phenyl]indole-2-carboxamide] |  | 0.43
226 | Cc1c(C(N)=O)n(C)c2c(-c3ccc(C#N)cc3)cc(C#N)cc12 [Example 22, 5-Cyano-7-(4-cyanophenyl)-1,3-dimethylindole-2-carboxamide] |  | 0.6
267 | Cc1c(C(N)=O)[nH]c2c(-c3ccc(C#N)cc3)cc(Cl)cc12 [Example 23] |  | 0.28
149 | Cc1c(C(N)=O)[nH]c2c(-c3ccc(OC(F)(F)F)cc3)cc(Cl)cc12 [Example 24, 5-Chloro-3-methyl-7-[4-(trifluoromethoxy)phenyl]-1H-indole-2-carboxamide] |  | 1.32
196 | Cc1c(C(N)=O)[nH]c2c(-c3ccc(F)cc3F)cc(Cl)cc12 [Example 25, 5-Chloro-7-(2,4-difluorophenyl)-3-methyl-1H-indole-2-carboxamide] |  | 0.21
195 | Cc1c(C(N)=O)[nH]c2c(-c3ccc(Cl)cc3Cl)cc(Cl)cc12 [Example 26, 5-Chloro-7-(2,4-dichlorophenyl)-3-methyl-1H-indole-2-carboxamide] |  | 0.33
181 | Cc1c(C(N)=O)n(C)c2c(-c3ccc(OC(F)(F)F)cc3)cc(Cl)cc12 [Example 27, 5-Chloro-1,3-dimethyl-7-[4-(trifluoromethoxy)-phenyl]indole-2-carboxamide] |  | 3.67
199 | Cc1c(C(N)=O)n(C)c2c(-c3ccc(C#N)cc3)cc(Cl)cc12 [Example 28, 5-Chloro-7-(4-cyanophenyl)-1,3-dimethylindole-2-carboxamide] |  | 1.06
220 | Cc1c(C(N)=O)n(C)c2c(-c3ccc(F)cc3F)cc(Cl)cc12 [Example 29, 5-Chloro-7-(2,4-difluorophenyl)-1,3-dimethylindole-2-carboxamide] |  | 0.23
221 | Cc1c(C(N)=O)n(C)c2c(-c3ccc(Cl)cc3Cl)cc(Cl)cc12 [Example 30, 5-Chloro-7-(2,4-dichlorophenyl)-1,3-dimethylindole-2-carboxamide] |  | 0.93
283 | Cc1c(C(N)=O)[nH]c2c(-c3ccc(Cl)c(F)c3)cc(Cl)cc12 [Example 31, 5-Chloro-7-(4-chloro-3-fluorophenyl)-3-methyl-1H-indole-2-carboxamide] |  | 0.43
192 | Cc1c(C(N)=O)n(C)c2c(-c3ccc(Cl)c(F)c3)cc(Cl)cc12 [Example 32, 5-Chloro-7-(4-chloro-3-fluorophenyl)-1,3-dimethylindole-2-carboxamide] |  | 1.02
234 | N#Cc1cc(-c2ccc(F)cc2)c2[nH]c(C(N)=O)cc2c1 [Example 34, 5-Cyano-7-(4-fluorophenyl)-1H-indole-2-carboxamide] |  | 0.057
